In patent US11306078B2, “Piperidine CXCR7 receptor modulators” (IDORSIA PHARMACEUTICALS LTD., priority 2016, dated 2022):
pIC50: −log10 of the molar value.

Molecular target: human chemokine receptor CXCR7 (Homo sapiens (Human), UniProt P25106)
Test: Tango CXCR7-bla U2OS beta-arrestin recruitment assay (beta-lactamase reporter, FRET), antagonism of CXCL12/SDF1-α;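 further: compounds preincubated 15 min before CXCL12 addition, then 22 h at 37 °C, FRET emission ratio read with CCF4-AM substrate after 2 h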
Assay type: cell-based
Conditions: antagonistic effect on CXCR7; Tango CXCR7-bla U2OS cells, CXCL12/SDF1-α at its EC80

Sequence of human chemokine receptor CXCR7 (P25106 whole entry): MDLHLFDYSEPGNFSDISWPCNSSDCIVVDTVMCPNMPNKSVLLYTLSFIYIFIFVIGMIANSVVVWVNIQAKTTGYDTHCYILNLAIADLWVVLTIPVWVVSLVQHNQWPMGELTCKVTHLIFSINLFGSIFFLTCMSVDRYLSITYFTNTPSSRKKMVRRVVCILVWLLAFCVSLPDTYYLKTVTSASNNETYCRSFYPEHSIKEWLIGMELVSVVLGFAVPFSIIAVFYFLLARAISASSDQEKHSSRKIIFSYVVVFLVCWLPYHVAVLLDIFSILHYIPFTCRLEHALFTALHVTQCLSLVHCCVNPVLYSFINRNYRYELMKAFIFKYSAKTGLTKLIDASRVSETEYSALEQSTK

Row | SMILES | pIC50
1 | CC1(NC(=O)[C@@H]2CN(C3CCCCC3)CC[C@H]2NC(=O)c2cc(-c3ccc(F)cc3F)on2)CCOC1 (relative stereo) [Example 1.084, (3R*,4R*)-1-Cyclohexyl-4-{[5-(2,4-difluoro-phenyl)-isoxazole-3-carbonyl]-amino}-piperidine-3-carboxylic acid ((3RS)-3-methyl-tetrahydro-furan-3-yl)-amide] | 6.65
2 | O=C(N[C@@H]1CCN(C2CCCCC2)C[C@H]1C(=O)N1CCC(c2ccccn2)C1)c1cc(-c2ccc(F)cc2F)on1 (relative stereo) [Example 1.089, 5-(2,4-Difluoro-phenyl)-isoxazole-3-carboxylic acid [(3R*,4R*)-1-cyclohexyl-3-((3RS)-3-pyridin-2-yl-pyrrolidine-1-carbonyl)-piperidin-4-yl]-amide] | 6.33
3 | C[C@@H]1CCC[C@H]1N1CC[C@@H](NC(=O)c2cn(-c3ccc(F)cc3F)nn2)[C@H](C(=O)N(C)C)C1 (relative stereo) [Example 1.098, (3R*,4R*)-4-{[1-(2,4-Difluoro-phenyl)-1H-[1,2,3]triazole-4-carbonyl]-amino}-1-((1RS,2RS)-2-Methyl-cyclopentyl)-piperidine-3-carboxylic acid dimethylamide] | 6.56
4 | C[C@@H]1CCC[C@H]1N1CC[C@@H](NC(=O)c2cc(-c3c(F)cc(F)cc3F)on2)[C@H](C(=O)N(C)C)C1 (relative stereo) [Example 1.101, (3R*,4R*)-1-((1RS,2RS)-2-Methyl-cyclopentyl)-4-{[5-(2,4,6-trifluoro-phenyl)-isoxazole-3-carbonyl]-amino}-piperidine-3-carboxylic acid dimethylamide] | 7.35
5 | C[C@@H]1CCC[C@H]1N1CC[C@@H](NC(=O)c2cc(-c3c(F)cc(F)cc3F)on2)[C@H](C(=O)N2CCC2)C1 (relative stereo) [Example 1.108, 5-(2,4,6-Trifluoro-phenyl)-isoxazole-3-carboxylic acid [(3R*,4R*)-3-(azetidine-1-carbonyl)-1-((1RS,2RS)-2-methyl-cyclopentyl)-piperidin-4-yl]-amide] | 6.24
6 | COCC(C)(C)NC(=O)[C@@H]1CN([C@@H]2CCC[C@H]2C)CC[C@H]1NC(=O)c1cc(-c2c(F)cc(F)cc2F)on1 (relative stereo) [Example 1.114, (3R*,4R*)-1-((1RS,2RS)-2-Methyl-cyclopentyl)-4-{[5-(2,4,6-trifluoro-phenyl)-isoxazole-3-carbonyl]-amino}-piperidine-3-carboxylic acid (2-methoxy-1,1-dimethyl-ethyl)-amide] | 6.20
7 | C[C@@H](NC(=O)[C@@H]1CN(C2CCCCC2)CC[C@H]1NC(=O)c1cn(-c2ccc(F)cc2F)nn1)c1ccccn1 (relative stereo) [Example 1.117, (3R*,4R*)-1-Cyclohexyl-4-{[1-(2,4-difluoro-phenyl)-1H-[1,2,3]triazole-4-carbonyl]-amino}-piperidine-3-carboxylic acid ((R)-1-pyridin-2-yl-ethyl)-amide] | 7.17
8 | C[C@@H](NC(=O)[C@@H]1CN(C2CCCC2)CC[C@H]1NC(=O)c1cn(-c2ccc(F)cc2F)nn1)c1ccccn1 (relative stereo) [Example 1.118, (3R*,4R*)-1-Cyclopentyl-4-{[1-(2,4-difluoro-phenyl)-1H-[1,2,3]triazole-4-carbonyl]-amino}-piperidine-3-carboxylic acid ((R)-1-pyridin-2-yl-ethyl)-amide] | 7.44
9 | C[C@@H](NC(=O)[C@@H]1CN(CC2CC2)CC[C@H]1NC(=O)c1cn(-c2ccc(F)cc2F)nn1)c1ccccn1 (relative stereo) [Example 1.119, (3R*,4R*)-1-Cyclopropylmethyl-4-{[1-(2,4-difluoro-phenyl)-1H-[1,2,3]triazole-4-carbonyl]-amino}-piperidine-3-carboxylic acid ((R)-1-pyridin-2-yl-ethyl)-amide] | 6.84

The next lines start with the values.

Row | pIC50 | SMILES
10 | 7.12 | CCOCC(C)NC(=O)[C@@H]1CN(C2CCCCC2)CC[C@H]1NC(=O)c1cc(-c2ccc(F)cc2F)on1 (relative stereo) [Example 1.083, (3R*,4R*)-1-Cyclohexyl-4-{[5-(2,4-difluoro-phenyl)-isoxazole-3-carbonyl]-amino}-piperidine-3-carboxylic acid ((1RS)-2-ethoxy-1-methyl-ethyl)-amide]
11 | 6.57 | Cc1nnc(C(C)NC(=O)[C@@H]2CN(C3CCCCC3)CC[C@H]2NC(=O)c2cc(-c3ccc(F)cc3F)on2)o1 (relative stereo) [Example 1.085, (3R*,4R*)-1-Cyclohexyl-4-{[5-(2,4-difluoro-phenyl)-isoxazole-3-carbonyl]-amino}-piperidine-3-carboxylic acid [(1RS)-1-(5-methyl-[1,3,4]oxadiazol-2-yl)-ethyl]-amide]
12 | 6.81 | CC(NC(=O)[C@@H]1CN(C2CCCCC2)CC[C@H]1NC(=O)c1cc(-c2ccc(F)cc2F)on1)c1ncc(F)cc1F (relative stereo) [Example 1.086, (3R*,4R*)-1-Cyclohexyl-4-{[5-(2,4-difluoro-phenyl)-isoxazole-3-carbonyl]-amino}-piperidine-3-carboxylic acid [(1RS)-1-(3,5-difluoro-pyridin-2-yl)-ethyl]-amide]
13 | 6.03 | CC1(NC(=O)[C@@H]2CN(C3CCCCC3)CC[C@H]2NC(=O)c2cc(-c3ccc(F)cc3F)on2)CC(F)(F)C1 (relative stereo) [Example 1.087, rac-(3R*,4R*)-1-Cyclohexyl-4-{[5-(2,4-difluoro-phenyl)-isoxazole-3-carbonyl]-amino}-piperidine-3-carboxylic acid (3,3-difluoro-1-methyl-cyclobutyl)-amide]
14 | 6.99 | C[C@@H](NC(=O)[C@@H]1CN(C2CCCCC2)CC[C@H]1NC(=O)c1cc(-c2ccc(F)cc2F)on1)C1CCC1 (relative stereo) [Example 1.091, (3R*,4R*)-1-Cyclohexyl-4-{[5-(2,4-difluoro-phenyl)-isoxazole-3-carbonyl]-amino}-piperidine-3-carboxylic acid ((R)-1-cyclobutyl-ethyl)-amide]
15 | 9.00 | C[C@@H](NC(=O)[C@@H]1CN(C2CCCCC2)CC[C@H]1NC(=O)c1cc(-c2ccc(F)cc2F)on1)c1ncccc1F (relative stereo) [Example 1.092, (3R*,4R*)-1-Cyclohexyl-4-{[5-(2,4-difluoro-phenyl)-isoxazole-3-carbonyl]-amino}-piperidine-3-carboxylic acid [(R)-1-(3-fluoro-pyridin-2-yl)-ethyl]-amide]
16 | 6.06 | C[C@@H](NC(=O)[C@@H]1CN(C2CCCCC2)CC[C@H]1NC(=O)c1cc(-c2ccc(F)cc2F)on1)C(C)(C)C (relative stereo) [Example 1.093, (3R*,4R*)-1-Cyclohexyl-4-{[5-(2,4-difluoro-phenyl)-isoxazole-3-carbonyl]-amino}-piperidine-3-carboxylic acid ((R)-1,2,2-trimethyl-propyl)-amide]
17 | 7.00 | C[C@@H](NC(=O)[C@@H]1CN(C2CCCCC2)CC[C@H]1NC(=O)c1cc(-c2ccc(F)cc2F)on1)c1ncc(F)cn1 (relative stereo) [Example 1.094, (3R*,4R*)-1-Cyclohexyl-4-{[5-(2,4-difluoro-phenyl)-isoxazole-3-carbonyl]-amino}-piperidine-3-carboxylic acid [(R)-1-(5-fluoro-pyrimidin-2-yl)-ethyl]-amide]
